Measurements as given in patent publication US10414768B2, “Compounds for treating cystic fibrosis” (CENTRE NATIONAL DE LA RECHERCHE SCIENTIFIQUE (CNRS), priority 2014, dated 2019).

Target: T1, F508del-CFTR (Homo sapiens, UniProt P13569, DEL508-508)
T1 construct: expressed in transfected cells; host or cells: HeLa cells (spTCF-ΔF), selected with Zeocin
Assay: Iodide (125I) efflux from HeLa cells expressing F508del-CFTR
Type: cell-based
Conditions: HeLa, activators Fsk 10 μM + Gst 30 μM, relative to VX809 normalized at 100%, untreated cells 3.6%
Description: Pharmacology, chemicals and reagents. The CFTR activator forskolin and potentiator genistein (Illek et al., 1995) were purchased from LC Laboratories (PKC Pharmaceuticals, Woburn, Mass.). We purchased DIDS (5-Isothiocyanato-2-[2-(4-isothiocyanato-2-sulfophenyl)ethenyl]benzene-1-sulfonic acid) and VX809 (3-(6-(1-(2,2-difluorobenzo[d][1,3]dioxol-5-yl)cyclopropanecarboxamido)-3-methylpyridin-2-yl)benzoic acid) from Selleckchem (Houston, USA). Stock solutions of F (10 mM), G (30 mM), CFTRinh-172 (10 mM), VX809 (10 mM), were prepared in DMSO. We prepared stock solution of iminosugars, miglustat and IsoLAB ([1,4-dideoxy-2-hydroxymethyl-1,4-imino-L-threitol]) dissolved in water (100 mM) before further dilution. Methods Cell culture. HeLa cells expressing wild-type CFTR (spTCF-wt) or F508del-CFTR (spTCF-ΔF) were cultured in Dulbecco's modified Eagle's medium+GlutaMAX™-I (Invitrogen) supplemented with 8% (v/v) fetal bovine serum (FBS), 1% (v/v) penicillin/streptomycin and were selected using Zeocin (50 μg/mL). Both cell lines were grown in standard culture conditions (37° C., 5% C02). Cells were plated in 35 mm plastic dishes for whole-cell patch-clamp recordings and western blot analysis and in 96-well plates for cytotoxicity assay. For all cell culture, culture media were renewed every 2 days. Western Blot analysis. Cell lysates (10 mM Tris, 1% Nonidet P-40, 0.5% sodium deoxycholate, pH 7.5) were separated 72 h after seeding for HeLa cells by 5% SDS-PAGE (50 μg of protein/well). After saturation, nitrocellulose membrane was incubated overnight at 4° C. in phosphate-buffered saline, 0.1% Tween 20 with 1 μg/ml mouse anti-CFTR monoclonal antibody (clone MAB3480; Chemicon International, Millipore Bioscience Research Reagents, Temecula, Calif.). After washing, goat peroxidase-conjugated anti-mouse IgG (1:10 000; Sigma-Aldrich) was used as secondary antibody. CFTR was visualized by chemiluminescence with ECL Western blotting detection reagent (GE Healthcare, Buckinghamshire, UK). Iodide efflux. CFTR chloride channel activity was assayed by measuring the rate of iodide (^125I) efflux from living cells. All experiments were performed with a MultiPROBE® IIex robotic liquid handling system (Perkin Elmer Life Sciences, Courtaboeuf, France). At the beginning of each experiment, cells were washed twice with efflux buffer containing (in mM) 136.9 NaCl, 5.4 KCl, 0.3 KH2PO4, 0.3 NaH2PO4, 1.3 CaCl2, 0.5 MgCl2, 0.4 MgSO4, 5.6 glucose and 10 HEPES, pH 7.4. Cells were incubated in efflux buffer containing Na^125I (1 μCi Na^125I/ml, NEN, Boston, Mass.) during 1 h at 37° C., then washed with efflux medium to remove extracellular ^125I. The loss of intracellular ^125I was determined by removing the medium with efflux buffer every 1 min for up to 10 min. The first three aliquots were used to establish a stable baseline in efflux buffer alone. A medium containing the activators of CFTR (Fsk 10 μM+Gst 30 μM) and the appropriate drug was used for the remaining aliquots. Residual radioactivity was extracted with 0.1 N NaOH/0.1% SDS, and determined using a Packard Cobra™ II gamma counter (Perkin Elmer life Sciences, Courtaboeuf, France). The fraction of initial intracellular ^125I lost during each time point was collected and time-dependent rates of ^125I efflux calculated from: ln (^125It1/^125It2)/(t1−t2) where ^125It is the intracellular ^125I at time t, and t1 and t2 successive time points. Curves were constructed by plotting rate of 125I versus time. All comparisons were based on maximal values for the time-dependent rates (k=peak rates, min−1) excluding the points used to establish the baseline (kpeak−kbasal, min^−1), and histograms were presented as percentage of activation. Time dependence. Time dependence of the compounds was assayed by measuring the time necessary for an optimal correction of the protein F508del-CFTR. […]

T1 sequence (P13569 with tags, fused parts or gaps DEL508-508): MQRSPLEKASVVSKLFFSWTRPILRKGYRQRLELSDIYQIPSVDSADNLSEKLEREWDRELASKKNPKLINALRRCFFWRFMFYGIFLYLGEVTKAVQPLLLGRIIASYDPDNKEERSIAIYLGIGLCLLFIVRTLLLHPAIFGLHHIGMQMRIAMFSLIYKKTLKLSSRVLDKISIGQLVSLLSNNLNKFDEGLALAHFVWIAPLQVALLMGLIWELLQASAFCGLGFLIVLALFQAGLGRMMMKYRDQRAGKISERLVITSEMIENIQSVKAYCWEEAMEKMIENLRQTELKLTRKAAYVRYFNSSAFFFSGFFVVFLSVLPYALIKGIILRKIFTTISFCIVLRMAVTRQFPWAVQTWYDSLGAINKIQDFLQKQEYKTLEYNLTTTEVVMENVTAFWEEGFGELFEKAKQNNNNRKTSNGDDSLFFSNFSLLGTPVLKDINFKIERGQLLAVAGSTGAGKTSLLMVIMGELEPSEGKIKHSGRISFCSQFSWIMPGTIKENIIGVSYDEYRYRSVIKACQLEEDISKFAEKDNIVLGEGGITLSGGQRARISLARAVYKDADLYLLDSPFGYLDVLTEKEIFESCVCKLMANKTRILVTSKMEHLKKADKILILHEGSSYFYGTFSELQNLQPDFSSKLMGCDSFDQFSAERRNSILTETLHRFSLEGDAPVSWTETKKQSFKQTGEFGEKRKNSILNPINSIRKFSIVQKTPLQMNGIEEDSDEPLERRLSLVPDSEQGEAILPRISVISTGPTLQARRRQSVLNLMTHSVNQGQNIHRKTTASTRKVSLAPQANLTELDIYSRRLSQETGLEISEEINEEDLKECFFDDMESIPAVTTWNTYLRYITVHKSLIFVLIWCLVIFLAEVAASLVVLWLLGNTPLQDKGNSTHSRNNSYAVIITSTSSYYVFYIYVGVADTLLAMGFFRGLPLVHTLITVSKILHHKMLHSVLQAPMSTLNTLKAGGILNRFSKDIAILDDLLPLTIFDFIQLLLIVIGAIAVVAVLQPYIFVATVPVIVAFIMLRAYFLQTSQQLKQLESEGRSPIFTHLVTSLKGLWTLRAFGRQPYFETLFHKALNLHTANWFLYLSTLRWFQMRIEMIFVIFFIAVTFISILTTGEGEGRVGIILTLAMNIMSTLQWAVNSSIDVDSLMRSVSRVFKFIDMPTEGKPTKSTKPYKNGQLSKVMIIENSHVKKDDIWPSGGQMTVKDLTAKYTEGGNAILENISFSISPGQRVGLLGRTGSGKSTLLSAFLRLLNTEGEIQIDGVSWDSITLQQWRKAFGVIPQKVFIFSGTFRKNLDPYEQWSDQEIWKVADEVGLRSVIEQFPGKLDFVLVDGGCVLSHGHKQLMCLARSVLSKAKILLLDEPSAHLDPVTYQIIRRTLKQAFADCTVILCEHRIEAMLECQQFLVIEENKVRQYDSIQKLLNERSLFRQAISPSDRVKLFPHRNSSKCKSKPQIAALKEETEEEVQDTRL

SMILES	Emax [%]
Clc1nc(Cl)c2ncn(-c3ccccc3)c2n1 [Compound 80, 2,6-dichloro-9-phenyl-9H-purine]	10 to 35
COc1ccc(CNc2nc(Cl)nc3c2ncn3Cc2ccc(C(N)=O)cc2)cc1 [Compound 89, 4-((2-chloro-6-((4-methoxybenzyl)amino)-9H-purin-9-yl)methyl)benzamide]	10 to 35
COc1ccc(CNc2nc(OCCc3ccccc3)nc3[nH]cnc23)cc1 [Compound 12, N-(4-methoxybenzyl)-2-phenethoxy-9H-purin-6-amine]	10 to 35
NC(=O)c1ccc(Oc2ncnc(Cl)c2N)cc1 [Compound 55, 4-((5-amino-6-chloropyrimidin-4-yl)oxy)benzamide]	≥ 60
Nc1nc(Cl)nc2c1ncn2-c1ccc(CO)cc1 [Compound 54, (4-(6-amino-2-chloro-9H-purin-9-yl)phenyl)methanol]	≥ 60
COc1ccc(CNc2nc(Cl)nc3c2ncn3Cc2ccccc2)cc1 [Compound 4, 9-benzyl-2-chloro-N-(4-methoxybenzyl)-9H-purin-6-amine]	≥ 60
NC(=O)c1ccc(-n2cnc3c(N)nc(Cl)nc32)cc1 [Compound 18, 4-(6-amino-2-chloro-9H-purin-9-yl)benzamide]	35 to 60
Cc1ccc(Nc2ncnc(Cl)c2N)cc1 [Compound 109, 6-chloro-N4-(p-tolyl)pyrimidine-4,5-diamine]	35 to 60
C[C@H](Nc1nc(Cl)nc2c1ncn2Cc1ccc(C(N)=O)cc1)C(=O)OC(C)(C)C [Compound 121, (S)-tert-butyl 2-((9-(4-carbamoylbenzyl)-2-chloro-9H-purin-6-yl)amino)propanoate]	10 to 35
NC(=O)c1ccc(Cn2cnc3c(Cl)nc(Cl)nc32)cc1 [Compound 93, 4-((2,6-dichloro-9H-purin-9-yl)methyl)benzamide]	10 to 35
NC(=O)c1ccc(Nc2c[n+]([O-])ccc2[N+](=O)[O-])cc1 [Compound 114, 3-((4-carbamoylphenyl)amino)-4-nitropyridine 1-oxide]	≥ 60
NC(=O)c1ccc(-n2cnc3c(NCC(=O)O)nc(Cl)nc32)cc1 [Compound 23, 2-((9-(4-carbamoylphenyl)-2-chloro-9H-purin-6-yl)amino)acetic acid]	≥ 60
C[C@H](Nc1nc(Cl)nc2c1ncn2-c1ccccc1)C(=O)OC(C)(C)C [Compound 81, (S)-tert-butyl 2-((2-chloro-9-phenyl-9H-purin-6-yl)amino)propanoate]	10 to 35
NC(=O)c1ccc(-c2nc(N)c3nc[nH]c3n2)cc1 [Compound 130, 4-(6-amino-9H-purin-2-yl)benzamide]	≥ 60
NS(=O)(=O)c1ccc(-n2nnc3c(Cl)ncnc32)cc1 [Compound 64, 4-(7-chloro-3H-[1,2,3]triazolo[4,5-d]pyrimidin-3-yl)benzenesulfonamide]	10 to 35
CN(c1ccc(C(N)=O)cc1)c1ncnc(Cl)c1N [Compound 126, 4-((5-amino-6-chloropyrimidin-4-yl)(methyl)amino)benzamide]	≥ 60
NC(=O)c1ccc(Nc2cc(O)nc(O)n2)cc1 [Compound 96, 4-((2,6-dihydroxypyrimidin-4-yl)amino)benzamide]	10 to 35
O=[N+]([O-])c1c(O)nc(O)nc1Cl [Compound 103, 6-chloro-5-nitropyrimidine-2,4-diol]	10 to 35
COC(=O)c1ccc(-n2cnc3c(O)nc(N)nc32)cc1 [Compound 31, methyl 4-(2-amino-6-hydroxy-9H-purin-9-yl)benzoate]	10 to 35
Nc1nc(Cl)c(N)c(Cl)n1 [Compound 48, 4,6-dichloropyrimidine-2,5-diamine]	≥ 60

SMILES	Emax [%]
Nc1nc(O)c2ncn(-c3ccccc3)c2n1 [Compound 92, 2-amino-9-phenyl-9H-purin-6-ol]	10 to 35
NC(=O)c1ccc(-c2nc(N)nc3[nH]cnc23)cc1 [Compound 113, 4-(2-amino-9H-purin-6-yl)benzamide]	≥ 60
CC(=O)c1ccc(-n2cnc3c(Cl)nc(Cl)nc32)cc1 [Compound 86, 1-(4-(2,6-dichloro-9H-purin-9-yl)phenyl)ethanone]	10 to 35
COC(=O)c1ccc(-n2cnc3c(Cl)nc(Cl)nc32)cc1 [Compound 90, methyl 4-(2,6-dichloro-9H-purin-9-yl)benzoate]	10 to 35
C[C@H](Nc1nc(NCCCc2ccccc2)nc2c1ncn2-c1ccccc1)C(=O)OC(C)(C)C [Compound 82, (S)-tert-butyl 2-((9-phenyl-2-((3-phenylpropyl)amino)-9H-purin-6-yl)amino)propanoate]	10 to 35
NC(=O)c1ccc(-c2ccnc3ccccc23)cc1 [Compound II-1, 4-(quinolin-4-yl)benzamide]	≥ 60
Nc1c(Cl)ncnc1Nc1ccc(F)cc1 [Compound 110, 6-chloro-N4-(4-fluorophenyl)pyrimidine-4,5-diamine]	10 to 35
Nc1cncnc1Cl [Compound 111, 4-chloropyrimidin-5-amine]	35 to 60
C[C@H](Nc1nc(NCCCc2ccccc2)nc2c1ncn2Cc1ccccc1)C(=O)O [Compound 6, (S)-2-((9-benzyl-2-((3-phenylpropyl)amino)-9H-purin-6-yl)amino)propanoic acid]	10 to 35
Nc1nc(Nc2ccc(CO)cc2)c2ncn(-c3ccc(CO)cc3)c2n1 [Compound 117, (4-(2-amino-6-((4-(hydroxymethyl)phenyl)-amino)-9H-purin-9-yl)phenyl)methanol]	35 to 60
NC(=O)c1ccc(Nc2ncnc(N)c2N)cc1 [Compound 59, 4-((5,6-diaminopyrimidin-4-yl)amino)benzamide]	35 to 60
NC(=O)c1ccc(Nc2ncncc2N)cc1 [Compound 107, 4-((5-aminopyrimidin-4-yl)amino)benzamide]	≥ 60
NC(=O)c1ccc(-n2cnc3c(N[C@@H](CO)C(=O)O)nc(Cl)nc32)cc1 [Compound 22, (S)-2-((9-(4-carbamoylphenyl)-2-chloro-9H-purin-6-yl)amino)-3-hydroxypropanoic acid]	35 to 60
COc1ccc(CNc2nc(OCCCc3ccccc3)nc3[nH]cnc23)cc1 [Compound 11, N-(4-methoxybenzyl)-2-(3-phenylpropoxy)-9H-purin-6-amine]	≥ 60
COc1ccc(CNc2nc(NCCCc3ccccc3)nc3c2ncn3-c2ccc(C(N)=O)cc2)cc1 [Compound 60, 4-(6-((4-methoxybenzyl)amino)-2-((3-phenylpropyl)amino)-9H-purin-9-yl)benzamide]	35 to 60
NC(=O)c1ccc(-n2nnc3c(Cl)ncnc32)cc1 [Compound 33, 4-(7-chloro-3H-[1,2,3]triazolo[4,5-d]pyrimidin-3-yl)benzamide]	≥ 60
Nc1nc(OCCCc2ccccc2)nc2[nH]cnc12 [Compound 53, 2-(3-phenylpropoxy)-9H-purin-6-amine]	10 to 35
NC(=O)c1ccc(-n2cnc3c(NC(CO)CO)nc(Cl)nc32)cc1 [Compound 21, 4-(2-chloro-6-((1,3-dihydroxypropan-2-yl)amino)-9H-purin-9-yl)benzamide]	≥ 60
CCN(CC)c1nc(Cl)nc2c1ncn2-c1ccc(C(N)=O)cc1 [Compound 17, 4-(2-chloro-6-(diethylamino)-9H-purin-9-yl)benzamide]	10 to 35
COc1ccc(CNc2nc(NCc3ccc(OC)cc3)c3nc[nH]c3n2)cc1 [Compound 88, N2,N6-bis(4-methoxybenzyl)-9H-purine-2,6-diamine]	10 to 35
